Measured values as given in ChEMBL document CHEMBL2086330, “Ras inhibition via direct Ras binding--is there a path forward?” (Bioorg Med Chem Lett, 2012).

Columns and labels:
[1] = Inhibition of Ras assessed as inhibition of intrinsic nucleotide exchange in cell-based assay
[2] = molecular target: GTPase KRas (Homo sapiens, UniProt P01116, G12D); assay: Binding affinity to K-Ras G12D mutant-GDP complex
[3] = Binding affinity to Ras SOS1 binding site
[4] = molecular target: GTPase NRas (Homo sapiens, UniProt P01111); assay: Inhibition of N-Ras expressed in Escherichia coli using [3H]GDP and [3H]GTP assessed as inhibition of intrinsic nucleotide exchange by scintillation counting
Sequence of GTPase NRas (P01111 whole entry, the tested form may be a part): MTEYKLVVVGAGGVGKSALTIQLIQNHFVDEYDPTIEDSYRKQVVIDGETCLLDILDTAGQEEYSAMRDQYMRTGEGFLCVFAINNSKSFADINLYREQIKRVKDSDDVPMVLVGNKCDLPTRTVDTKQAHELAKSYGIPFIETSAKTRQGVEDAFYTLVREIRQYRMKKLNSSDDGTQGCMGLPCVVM

[5] = molecular target: T1, Son of sevenless homolog 1 (Homo sapiens, UniProt Q07889); assay: Inhibition to His6-tagged Sos1 catalytic domain-mediated nucleotide exchange by fluorimetric assay
T1 sequence (Q07889 whole entry): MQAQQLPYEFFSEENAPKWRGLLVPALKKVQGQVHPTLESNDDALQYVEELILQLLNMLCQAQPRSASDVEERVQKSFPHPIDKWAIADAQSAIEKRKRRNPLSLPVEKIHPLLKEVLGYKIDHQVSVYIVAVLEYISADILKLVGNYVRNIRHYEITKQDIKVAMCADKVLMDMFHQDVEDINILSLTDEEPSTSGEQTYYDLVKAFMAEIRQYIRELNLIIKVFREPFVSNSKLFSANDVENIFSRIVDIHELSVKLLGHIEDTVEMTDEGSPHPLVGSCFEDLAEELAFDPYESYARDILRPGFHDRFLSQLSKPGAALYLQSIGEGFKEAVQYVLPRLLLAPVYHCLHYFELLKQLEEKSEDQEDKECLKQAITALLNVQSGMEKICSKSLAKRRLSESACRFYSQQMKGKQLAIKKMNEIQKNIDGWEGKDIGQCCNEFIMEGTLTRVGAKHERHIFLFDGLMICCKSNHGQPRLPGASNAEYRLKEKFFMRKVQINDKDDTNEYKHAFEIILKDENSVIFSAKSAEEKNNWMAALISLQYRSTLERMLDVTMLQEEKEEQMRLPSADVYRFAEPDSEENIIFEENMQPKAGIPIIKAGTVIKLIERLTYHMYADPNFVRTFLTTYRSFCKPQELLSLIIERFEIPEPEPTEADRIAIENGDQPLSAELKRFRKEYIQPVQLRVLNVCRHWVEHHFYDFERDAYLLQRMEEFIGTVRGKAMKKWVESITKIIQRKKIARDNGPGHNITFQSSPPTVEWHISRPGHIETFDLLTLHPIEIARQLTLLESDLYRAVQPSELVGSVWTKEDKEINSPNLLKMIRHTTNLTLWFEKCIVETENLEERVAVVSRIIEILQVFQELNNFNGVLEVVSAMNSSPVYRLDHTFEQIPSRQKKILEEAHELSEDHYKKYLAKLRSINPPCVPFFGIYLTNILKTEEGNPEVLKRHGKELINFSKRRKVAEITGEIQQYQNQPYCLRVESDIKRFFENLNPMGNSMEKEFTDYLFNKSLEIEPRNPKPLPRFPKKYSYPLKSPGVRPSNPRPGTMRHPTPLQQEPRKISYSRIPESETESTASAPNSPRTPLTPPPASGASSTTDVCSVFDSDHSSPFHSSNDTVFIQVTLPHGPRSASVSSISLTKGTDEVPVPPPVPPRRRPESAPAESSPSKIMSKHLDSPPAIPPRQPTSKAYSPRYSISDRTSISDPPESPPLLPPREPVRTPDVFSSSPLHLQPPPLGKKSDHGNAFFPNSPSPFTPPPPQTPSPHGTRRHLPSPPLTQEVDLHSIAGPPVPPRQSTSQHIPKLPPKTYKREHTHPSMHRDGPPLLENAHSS

Sequence of GTPase KRas (P01116 whole entry G12D): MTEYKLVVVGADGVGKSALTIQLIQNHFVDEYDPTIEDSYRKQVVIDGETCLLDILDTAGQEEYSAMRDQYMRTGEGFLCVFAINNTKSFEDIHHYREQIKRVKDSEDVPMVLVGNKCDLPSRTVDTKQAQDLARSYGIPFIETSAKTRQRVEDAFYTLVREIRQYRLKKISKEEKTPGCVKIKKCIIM

SMILES: O=S(=O)(NCCOc1ccc2ccccc2c1)c1ccc(NO)cc1
- EC50 [1]: 10 µM

SMILES: CC[C@H](C)[C@H](N)C(=O)Nc1ccc2nc(Cc3c[nH]c4ccccc34)[nH]c2c1
- Kd [2]: 190 µM

SMILES: c1ccc2c(Cc3nc4ccncc4[nH]3)c[nH]c2c1
- Activity [3]: 1.3 mM

SMILES: O=S(=O)(c1ccc(NO)cc1)N(CCOc1ccc2ccccc2c1)[C@@H]1O[C@H](CO)[C@@H](O)[C@H](O)[C@H]1O
- IC50 [4]: 0.5 µM

SMILES: CC[C@H](C)[C@H](NC(=O)CN1C/C=C\CCC(=O)N[C@@H](Cc2ccccc2)C(=O)N[C@@H](CCC(=O)O)C1=O)C(=O)N[C@@H](Cc1ccc(O)cc1)C(=O)N[C@@H](CCCNC(=N)N)C(=O)N[C@@H](CC(C)C)C(=O)N[C@@H](CCC(=O)O)C(=O)N[C@@H](CC(C)C)C(=O)N[C@@H](CC(C)C)C(=O)N[C@@H](CCCCN)C(=O)N[C@@H](C)C(=O)N[C@@H](CCC(=O)O)C(=O)N[C@@H](CCC(=O)O)C(=O)N[C@@H](C)C(=O)N[C@@H](CC(N)=O)C(N)=O
- IC50 [5]: 25 µM

SMILES: Oc1ccccc1C(=S)N1CCCC1
- Activity [3]: 1.3 mM

SMILES: Nc1cccc(NS(=O)(=O)c2ccc(F)cc2)n1
- Activity [3]: 1.3 mM
